Laboratory results: PubChem BioAssay (NCI)
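Following 48 hours of exposure in 96-well plates, responses at five concentrations were used to interpolate endpoints linearly. GI50: concentration for 50% inhibition of growth. Definition used: TGI = concentration required for complete inhibition of growth.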

What was measured:
Assay in all cases: DTP human tumour cell line panel, 48 h
[1] = tested on: UACC-62 melanoma
[2] = tested on: M14 melanoma
[3] = tested on: HCC-2998 colon
[4] = tested on: OVCAR-3 ovarian
[5] = tested on: HCT-116 colon
[6] = tested on: DU-145 prostate
[7] = tested on: SF-539 CNS
[8] = tested on: COLO 205 colon
[9] = tested on: LOX IMVI melanoma
[10] = tested on: T-47D breast
[11] = tested on: SF-268 CNS
[12] = tested on: CCRF-CEM leukemia
[13] = tested on: ACHN renal
[14] = tested on: SN12C renal
[15] = tested on: UO-31 renal
[16] = tested on: HCT-15 colon
[17] = tested on: HL-60(TB) leukemia
[18] = tested on: OVCAR-5 ovarian
[19] = tested on: MDA-MB-435
[20] = tested on: NCI-H226 lung
[21] = tested on: RPMI-8226 leukemia
[22] = tested on: MALME-3M melanoma
[23] = tested on: SK-MEL-5 melanoma
[24] = tested on: SK-MEL-28 melanoma
[25] = tested on: OVCAR-8 ovarian
[26] = tested on: A549 NSCLC
[27] = tested on: EKVX NSCLC
[28] = tested on: KM12 colon
[29] = tested on: NCI/ADR-RES ovarian
[30] = tested on: UACC-257 melanoma
[31] = tested on: NCI-H460 lung
[32] = tested on: SNB-19 CNS
[33] = tested on: K-562 leukemia
[34] = tested on: MOLT-4 leukemia
[35] = tested on: PC-3 prostate
[36] = tested on: OVCAR-4 ovarian
[37] = tested on: TK-10 renal
[38] = tested on: HS 578T breast
[39] = tested on: 786-0 renal
[40] = tested on: SK-OV-3 ovarian
[41] = tested on: NCI-H522 lung
[42] = tested on: HOP-92 NSCLC
[43] = tested on: U251 CNS
[44] = tested on: SNB-75 CNS
[45] = tested on: BT-549 breast
[46] = tested on: IGROV1 ovarian
[47] = tested on: SK-MEL-2 melanoma
[48] = tested on: A498 renal
[49] = tested on: NCI-H23 lung
[50] = tested on: HT29 colon
[51] = tested on: SW-620 colon
[52] = tested on: MCF7 breast
[53] = tested on: MDA-MB-231 breast
[54] = tested on: SF-295 CNS
[55] = tested on: CAKI-1 renal
[56] = tested on: SR leukemia
[57] = tested on: HOP-62 NSCLC
[58] = tested on: RXF 393 renal

CC1=CC(C)=N/C(=N/S(=O)(=O)c2cc(C)c(Cl)cc2SCc2ccccc2)NN1
GI50 [1]: > 100000 nM | TGI [1]: > 100000 nM | GI50 [2]: > 100000 nM | TGI [2]: > 100000 nM | GI50 [3]: > 100000 nM | TGI [3]: > 100000 nM | GI50 [4]: > 100000 nM | TGI [4]: > 100000 nM | GI50 [5]: > 100000 nM | TGI [5]: > 100000 nM | GI50 [6]: > 100000 nM | TGI [6]: > 100000 nM | GI50 [7]: 81100 nM | TGI [7]: > 100000 nM | GI50 [8]: > 100000 nM | TGI [8]: > 100000 nM | GI50 [9]: > 100000 nM | TGI [9]: > 100000 nM | GI50 [10]: > 100000 nM | TGI [10]: > 100000 nM | GI50 [11]: 78100 nM | TGI [11]: > 100000 nM | GI50 [12]: > 100000 nM | TGI [12]: > 100000 nM | GI50 [13]: > 100000 nM | TGI [13]: > 100000 nM | GI50 [14]: > 100000 nM | TGI [14]: > 100000 nM | GI50 [15]: > 100000 nM | TGI [15]: > 100000 nM | GI50 [16]: > 100000 nM | TGI [16]: > 100000 nM | GI50 [17]: > 100000 nM | TGI [17]: > 100000 nM | GI50 [18]: > 100000 nM | TGI [18]: > 100000 nM | GI50 [19]: > 100000 nM | TGI [19]: > 100000 nM | GI50 [20]: > 100000 nM | TGI [20]: > 100000 nM | GI50 [21]: > 100000 nM | TGI [21]: > 100000 nM | GI50 [22]: > 100000 nM | TGI [22]: > 100000 nM | GI50 [23]: > 100000 nM | TGI [23]: > 100000 nM | GI50 [24]: > 100000 nM | TGI [24]: > 100000 nM | GI50 [25]: > 100000 nM | TGI [25]: > 100000 nM | GI50 [26]: > 100000 nM | TGI [26]: > 100000 nM | GI50 [27]: 98600 nM | TGI [27]: > 100000 nM | GI50 [28]: > 100000 nM | TGI [28]: > 100000 nM | GI50 [29]: > 100000 nM | TGI [29]: > 100000 nM | GI50 [30]: > 100000 nM | TGI [30]: > 100000 nM | GI50 [31]: > 100000 nM | TGI [31]: > 100000 nM | GI50 [32]: > 100000 nM | TGI [32]: > 100000 nM | GI50 [33]: > 100000 nM | TGI [33]: > 100000 nM | GI50 [34]: > 100000 nM | TGI [34]: > 100000 nM | GI50 [35]: > 100000 nM | TGI [35]: > 100000 nM | GI50 [36]: 79100 nM | TGI [36]: > 100000 nM | GI50 [37]: > 100000 nM | TGI [37]: > 100000 nM | GI50 [38]: > 100000 nM | TGI [38]: > 100000 nM | GI50 [39]: > 100000 nM | TGI [39]: > 100000 nM | GI50 [40]: > 100000 nM | TGI [40]: > 100000 nM | GI50 [41]: 96600 nM | TGI [41]: > 100000 nM | GI50 [42]: 17900 nM | TGI [42]: 62800 nM | GI50 [43]: 82300 nM | TGI [43]: > 100000 nM | GI50 [44]: 32500 nM | TGI [44]: > 100000 nM | GI50 [45]: > 100000 nM | TGI [45]: > 100000 nM | GI50 [46]: > 100000 nM | TGI [46]: > 100000 nM | GI50 [47]: > 100000 nM | TGI [47]: > 100000 nM | GI50 [48]: > 100000 nM | TGI [48]: > 100000 nM | GI50 [49]: > 100000 nM | TGI [49]: > 100000 nM | GI50 [50]: > 100000 nM | TGI [50]: > 100000 nM | GI50 [51]: > 100000 nM | TGI [51]: > 100000 nM | GI50 [52]: > 100000 nM | TGI [52]: > 100000 nM | GI50 [53]: > 100000 nM | TGI [53]: > 100000 nM | GI50 [54]: > 100000 nM | TGI [54]: > 100000 nM | GI50 [55]: > 100000 nM | TGI [55]: > 100000 nM | GI50 [56]: > 100000 nM | TGI [56]: > 100000 nM | GI50 [57]: 82500 nM | TGI [57]: > 100000 nM

CCC[CH2][Sn]1([CH2]CCC)[O]C(=O)c2cccc([N+](=O)[O-])c2C(=O)[O]1
GI50 [1]: 381 nM | TGI [1]: 1500 nM | GI50 [2]: 682 nM | TGI [2]: 2070 nM | GI50 [3]: 1110 nM | TGI [3]: 2450 nM | GI50 [4]: 1060 nM | TGI [4]: 2300 nM | GI50 [5]: 435 nM | TGI [5]: 1620 nM | GI50 [6]: 795 nM | TGI [6]: 2050 nM | GI50 [7]: 497 nM | TGI [7]: 1730 nM | GI50 [8]: 617 nM | TGI [8]: 1930 nM | GI50 [9]: 259 nM | TGI [9]: 700 nM | GI50 [10]: 60.4 nM | TGI [10]: 270 nM | GI50 [11]: 431 nM | TGI [11]: 1650 nM | GI50 [12]: 61.7 nM | TGI [12]: 683 nM | GI50 [13]: 348 nM | TGI [13]: 1270 nM | GI50 [14]: 784 nM | TGI [14]: 2150 nM | GI50 [15]: 329 nM | TGI [15]: 1410 nM | GI50 [16]: 300 nM | TGI [16]: 1310 nM | GI50 [17]: 206 nM | TGI [17]: 1350 nM | GI50 [18]: 1110 nM | TGI [18]: 2490 nM | GI50 [19]: 594 nM | TGI [19]: 1910 nM | GI50 [20]: 331 nM | TGI [20]: 1340 nM | GI50 [21]: 186 nM | TGI [21]: 596 nM | GI50 [22]: 189 nM | TGI [22]: 623 nM | GI50 [23]: 919 nM | TGI [23]: 2220 nM | GI50 [24]: 465 nM | TGI [24]: 1430 nM | GI50 [25]: 1040 nM | TGI [25]: 2240 nM | GI50 [26]: 1770 nM | TGI [26]: 3590 nM | GI50 [28]: 1600 nM | TGI [28]: 3160 nM | GI50 [29]: 1530 nM | TGI [29]: 3210 nM | GI50 [30]: 292 nM | TGI [30]: 1190 nM | GI50 [31]: 1660 nM | TGI [31]: 3570 nM | GI50 [32]: 1200 nM | TGI [32]: 2510 nM | GI50 [34]: 409 nM | TGI [34]: 2980 nM | GI50 [35]: 1060 nM | TGI [35]: 2450 nM | GI50 [36]: 465 nM | TGI [36]: 1730 nM | GI50 [37]: 335 nM | TGI [37]: 805 nM | GI50 [58]: 270 nM | TGI [58]: 783 nM | GI50 [38]: 907 nM | TGI [38]: 3730 nM | GI50 [39]: 724 nM | TGI [39]: 1990 nM | GI50 [40]: 1690 nM | TGI [40]: 3070 nM | GI50 [41]: 71.1 nM | TGI [41]: 217 nM | GI50 [42]: 228 nM | TGI [42]: 1660 nM | GI50 [43]: 633 nM | TGI [43]: 1940 nM | GI50 [44]: 324 nM | TGI [44]: 1640 nM | GI50 [45]: 849 nM | TGI [45]: 2090 nM | GI50 [46]: 890 nM | TGI [46]: 2380 nM | GI50 [47]: 286 nM | TGI [47]: 825 nM | GI50 [48]: 191 nM | TGI [48]: 547 nM | GI50 [49]: 301 nM | TGI [49]: 1190 nM | GI50 [50]: 1310 nM | TGI [50]: 2870 nM | GI50 [51]: 171 nM | TGI [51]: 540 nM | GI50 [52]: 244 nM | TGI [52]: 1130 nM | GI50 [53]: 271 nM | TGI [53]: 1040 nM | GI50 [54]: 1550 nM | TGI [54]: 2950 nM | GI50 [55]: 332 nM | TGI [55]: 1390 nM | GI50 [56]: 280 nM | TGI [56]: 1970 nM | GI50 [57]: 1920 nM | TGI [57]: 3360 nM
